Experimental data taken from US7799319B2, “Method for measuring skin absorbability” (Shiseido Company, Ltd., priority 2000, dated 2010).
Like-named read-outs stand apart in the source and are kept apart here.

Experiments:
[1] = Measurement method 1-1: in vitro skin-pore absorption into hair follicles and skin tissue; format: in vitro ADME, miniature pig
From the text: In measurement method 1-1, the skin of a model animal or the skin reconstructed from skin cells may be employed as a skin model. The model animal from which the skin is taken is not particularly limited, and pig, human, cattle, mouse, or rat are all potential donors. In measurement method 1-1, the skin of a hairy animal is usually employed in order to evaluate the penetrability of a drug through skin pores into hair follicles. Therefore, a mutated hairless animal is usually unsuitable for the model animal. […] Therefore, other than human, pig is preferably employed as a model animal.
The skin is not particularly limited, so long as the skin satisfies the above condition. For example, as described below in the Example, a skin model may be fixed onto a collagen gel.
The conditions for the application of the substance may be arbitrarily determined in accordance with the type of the substance or the object. Usually, the skin to which the substance is applied is incubated at about 37° C. (near the temperature of the human body) over a predetermined time period. The incubation time varies with the intended product form of the substance.
The portion at which the delivery amount of the substance is measured is limited to the region corresponding to the dermis of the skin, since in the region corresponding to the stratum corneum or epidermis of the skin, the hair follicle may be contaminated with epidermal tissue debris or excretions from the sebaceous glands, and thus the exact delivery amount of the substance is difficult to measure.
The method for measuring the delivery amount of the substance is not particularly limited. For example, liquid chromatography (including high-performance liquid chromatography), a fluorescent antibody technique using a fluorescence-labeled antibody, mass spectrometry, or a method using a radioisotope may be employed. Of these, liquid chromatography is preferable, in consideration of convenience.
In the evaluation test, 0.5% pantothenyl ethylether (90% ethanol product) was employed as a substance to be tested, and the skin of a miniature pig (Yucatan Micropig Skin Set: product of Charles River) was employed as a skin model.
The test sample (20 μl) was applied onto the skin sample comprising skin pores 14. The substance was applied onto a region (diameter: 1.5 cm) of the sample; i.e., within an assay ring to which silicon grease was applied. The resultant skin sample 10 was allowed to stand at 37° C. for 16 hours. After having being washed, the sample 10 was separated into the stratum corneum 11, the epidermis 12, and the dermis 13. Subsequently, hair follicles 15 were removed from the dermis 13, and the amount of pantothenyl ethylether contained in the follicles was measured, as a delivery amount per unit weight of the hair follicle, by means of liquid chromatography (NANOSPACE (product of Shiseido Co., Ltd.), eluent: (CH3CN:H2O=3:7), detection wavelength: 210 nm).
The skin sample 10 of the miniature pig was derived from the upper back and lower back (n=3).

[2] = in vivo
Description: (§1) (2) an in vivo quantification method (hereinafter referred to as “measurement method 1-2”) in which the amount of a substance (e.g., a drug) which is penetrated into the hair follicle is determined by applying the substance to the human scalp, removing the hair follicle from the scalp, and measuring the concentration of the substance which is delivered to the hair follicle.
(§2) In measurement method 1-2, a method for the application of a substance such as a drug to the human scalp may be arbitrarily determined in accordance with the characteristics or the intended product form of the substance.
(§3) After the substance is applied to a person participating in the test, several hair strands from the person are removed, and the thus-obtained hair follicles may be stored as hair shafts and/or outer root sheaths. The amount of the substance which is delivered to the subcutaneous portion of the hair shaft and/or the outer root sheath is measured, and the thus-obtained delivery amount of the substance may be employed as an index of the skin-pore absorbability of the substance.
(§4) The delivery amount of the substance may be measured in a manner similar to that of measurement method 1-1.
(§5) Thirty male panelists were enrolled in the test. […] Each of the test samples (0.5 ml for each) was applied to the scalp (area: 1 cm^2) of each male panelist, and then the scalp was left for 16 hours. […]

[3] = Measurement method 1-2: in vivo skin-pore absorption, human scalp hair follicles; conditions: 5% isostearyl alcohol, 1% pantothenyl ethylether, 0.5 ml on scalp, 16 hours, vs control, FIG. 8
Description: as §1, §2, §3, §4, §5

[4] = Measurement method 2: sebum transferability through keratinized silicone film into artificial sebum (Franz cell kit); format: in vitro ADME; conditions: 5% isostearyl alcohol, 2% minoxidil composition, 20 μl, 37° C., 24 hours, FIG. 12
From the text: The present invention also provides a method for the measurement of skin absorbability of a substance (hereinafter the method will be referred to as “measurement method 2”), which comprises bringing a substance into contact with a first surface of a film that mimics the skin surface layer, a second surface of the film being brought into contact with artificial sebum; and using the degree of transfer of the substance to the artificial sebum as an index, to thereby evaluate the sebum transferability of the substance.
The sebum transferability of a substance may be evaluated through the following procedure: the substance is applied to the stratum corneum side of the thin film, the opposite side of the stratum corneum side being brought into contact with the artificial sebum; the degree of transfer of the substance to the artificial sebum, for example, the amount of the substance transferred to the sebum per unit time, i.e., the amount of the substance contained in the sebum is measured; and the amount of the substance in the sebum is employed as an index, to thereby evaluate the sebum transferability of the substance.
1. […]
The test was carried out under the aforementioned conditions. […] The degree of transfer of minoxidil to the artificial sebum was evaluated on the basis of the concentration of minoxidil contained in the sebum after the elapse of a specified time period. […]

skin-pore absorption of pantothenyl ethylether ([1]; 1% terpene refreshing agent, 0.5% pantothenyl ethylether, vs control, FIGS. 11A and 11B) | skin-pore absorption of pantothenyl ethylether [2] | concentration of pantothenyl ethylether delivered to the hair follicles (hair shafts and outer root sheaths) [3] | skin-pore absorption of minoxidil (concentration delivered to the hair follicles) ([1]; 5% isostearyl alcohol compared with 5% amine oxide composition, 0.5% minoxidil, FIG. 9B) | skin-pore absorption of β-glycyrrhetinic acid (concentration delivered to the hair follicles) ([1]; 5% isostearyl alcohol compared with 5% amine oxide composition, 0.5% β-glycyrrhetinic acid, FIG. 9A) | concentration of pantothenyl ethylether delivered to hair follicles ([1]; 5% isostearyl alcohol composition vs control, 0.5% pantothenyl ethylether, 20 μl, 37° C., 16 hours, FIG. 4) | concentration of pantothenyl ethylether delivered to the stratum corneum ([1]; 5% isostearyl alcohol composition vs control, FIG. 5A) | concentration of pantothenyl ethylether delivered to the epidermis ([1]; 5% isostearyl alcohol composition vs control, FIG. 5B) | concentration of pantothenyl ethylether delivered to the dermis ([1]; 5% isostearyl alcohol composition vs control, FIG. 5C) | sebum transferability of minoxidil (concentration of minoxidil in the artificial sebum) [4] | SMILES
accelerates | accelerates |  |  |  |  |  |  |  |  | CC12CCC(CC1=O)C2(C)C (stereo not shown) [camphor]
 |  | increases | accelerates | accelerates | increases significantly | decreased | decreased | slightly increased | enhances | CC(C)CCCCCCCCCCCCCCCO [isostearyl alcohol]
